According to patent US6392098B1, “Conformationally restricted polyamines” (Wisconsin Alumni Research Foundation, priority 1997, dated 2002):
pIC50: −log10 of the molar value. Counter-ions that a name gives are not always drawn.

Tests used:
[1] = system: brain cancer cells U251MG-NCI; test: Growth of U251MG-NCI cells at fixed drug concentration (viable cells over days); format: cell-based, human
Description: FIGS. 7 and 8 depict the effect of fixed doses of 10 μM and 40 μM of the subject compounds, respectively, on the growth of the human brain cancer cell line U251MG-NCI. Here, the X-axis represents time in days, and the Y-axis represents the total number of viable cells.
Human breast cancer cell line MCF7 was grown in Richter's Improved Modified Eagle's Medium supplemented with 10% fetal bovine serum (FBS) and 2.2 g/L sodium bicarbonate. Human brain cancer cell line U251MG-NCI was grown in Dulbecco's Modified Eagle's Medium supplemented with 10% FBS. Human lung cancer cell line A549 was grown in Ham's F-12K medium (Fisher Scientific, Itasca, Ill.), supplemented with 10% FBS and 2 mM L-glutamine. Human colon cancer cell line HT29 was cultured in McCoy's 5A medium (Gibco, BRL, Gaithersburg, Md.), supplemented with 10% FBS. Human prostate cancer cell line PC3 was grown in Dulbecco's Modified Eagles Medium supplemented with 5% FBS. The A549 and MCF7 cell lines were cultured in 100 units/mL penicillin and 100 μg/mL streptomycin. HT29 and U251MG cell lines were grown in 50 μg/mL gentamycin. PC3 cell lines were maintained in 1% antibiotic-antimycotic solution (Sigma, St. Louis, Mo.). […]
Here, the above-identified compounds were administered in a 10 μM dose to cultures of the human brain cancer cell line U251MG-NCI and evaluated according to the standard protocol described above. […]

[2] = system: human brain cancer cells U251 MG; test: MTT cell survival assay, U251MG NCI; format: cell-based; details: six days after drug treatment, read-out: Cytotoxic Activity Human Tumor Cell Lines ID50 U251MG NCl
Description: Human breast cancer cell line MCF7 was grown in Richter's Improved Modified Eagle's Medium supplemented with 10% fetal bovine serum (FBS) and 2.2 g/L sodium bicarbonate. Human brain cancer cell line U251MG-NCI was grown in Dulbecco's Modified Eagle's Medium supplemented with 10% FBS. […] Human prostate cancer cell line PC3 was grown in Dulbecco's Modified Eagles Medium supplemented with 5% FBS. […] The cell cultures were maintained at 37° C. in 5% CO2/95% humidified air.
Here, a conventional MTT assay was used to evaluate percent cell survival. Exponentially growing monolayer cells were plated in 96-well plates at a density of 500 cells per well and allowed to grow for 24 hours. Serial dilutions of the drugs were added to the wells. Six days after drug treatment, 25 μl of MTT solution (5 mg/ml) was added to each well and incubated for 4 hours at 37° C. Then 100 μl of lysis buffer (20% sodium dodecyl sulfate, 50% DMF, and 0.8% acetic acid, pH 4.7) was added to each well and incubated for an additional 22 hours. A microplate reader (“EMAX”-brand, Molecular Devices, Sunnyvale, Calif.) set at 570 nm was used to determine the optical density of the cultures. Results are expressed as a ratio of the optical density in drug-treated wells to the optical density in wells treated with vehicle only.
The ID50 is the drug concentration that killed 50% of the cultured cells.

Row | SMILES | melting point | other results
1 | CCNCCCNC[C@@H]1C[C@@H]1CNCCCNCC (as salt: hydrochloride) [SL-11037, N-Ethyl-N′-(2-(3′-ethylamino-propylaminomethyl)-cis-cyclopropylmethyl)-propane 1,3-diamine tetrahydrochloride] | 240 °C (dec.) | 
2 | CCNCCCNC[C@H]1CC[C@H]1CNCCCNCC (as salt: hydrochloride) [SL-11043, N-Ethyl-N′-(2-(3′-ethylamino-propylaminomethyl)-cis-cyclobutylmethyl)-propane1,3-diamine tetrahydrochloride] | 92 to 93 °C | 
3 | CCNCCCNCC1CCC1CNCCCNCC (stereo not drawn) (as salt: hydrochloride) [SL-11044, N-Ethyl-N′-(2-(3′-ethylamino-propylaminomethyl)-trans-cyclobutylmethyl)-propane1,3-diamine tetrahydrochloride] | 77 to 78 °C | 
4 | CCNCCCNC1CCC1NCCCNCC (centres unmarked) [SL-11034] |  | effect on growth of U251MG-NCI cells ([1]; 40 μM concentration): marked inhibition of cell growth
5 | CCNCCCNCC1CC1CNCCCNCC (stereo not drawn) [SL-11038, N-Ethyl-N′-(2-(3′-ethylamino-propylaminomethyl)-trans-cyclopropylmethyl)-propane-1,3-diamine tetrahydrochloride] |  | pIC50 [2]: 7.00

More lines, main results first:

Row | melting point | SMILES | other results
6 | 270 °C (dec.) | CCNCCCNCC1CC1CNCCCNCC (stereo not drawn) (as salt: hydrochloride) [SL-11038, N-Ethyl-N′-(2-(3′-ethylamino-propylaminomethyl)-trans-cyclopropylmethyl)-propane-1,3-diamine tetrahydrochloride] | 
7 | 240 °C (dec.) | CCNCCCNC1CC1NCCCNCC (centres unmarked) [SL-11027] | effect on growth of U251MG-NCI cells ([1]; 10 μM concentration): marked inhibition of cell growth
